Measurements from patent publication US20150141437A1, “AMIDOPHENOXYPROPANOLAMINES” (MEDIZINISCHE UNIVERSITÄT WIEN, priority 2012, published 2015).

Experiments:
[1] = system: P. berghei, ANKA strain, GFP MRA-865; assay: P. berghei rodent malaria 4-day suppressive test; assay type: in vivo, Plasmodium berghei; settings: NMRI mice, 30 mg/kg 4x i.p.; for % activity (percent reduction of parasitemia) / % of control: day 4; for avg.Day 4 (parasitemia): day 4 (96 h post-infection); for % of control: control group taken as 100%
Experimental: Primary biological assessment of in vivo antimalarial efficacy of the compounds of the present invention was assessed using the P. berghei rodent malaria 4-day suppressive test as recently described (14) (parasite: P. berghei, ANKA strain, GFP MRA-865; mice: NMRI mice, SPF, females, 25±2 g. free from Eperythrozoon coccoides and Haemobartonella muris). The experimental groups were treated with a single dose of compounds of the present invention (30 mg/kg) by the i.p. route. The compounds were prepared at an appropriate concentration, as a solution or suspension containing 7% Tween80/3% ethanol. Day 1 to 3 (24 h, 48 h and 72 h post-infection), the experimental groups of mice were treated again with the same dose and by the same route as on day 0. Day 4 (24 h after the last treatment, i.e. 96 h post-infection), blood smears from all animals are prepared and stained with Giemsa. Parasitemia was determined as described elsewhere (14). The difference between the mean value of the control group (taken as 100%) and those of the experimental groups was calculated and expressed as percent reduction (=activity).
Indicated in TABLE 3 below are the percent reduction values for growth inhibition of the Plasmodium berghei parasite for the compounds of formula I indicated with their formula numbers of TABLE 2. Correlation of the formula numbers and chemical structures are set out in TABLE 1 of the example part.

[2] = system: P. falciparum K1 (CQ-resistant); assay: [3H]-hypoxanthine incorporation assay, K1 strain; assay type: cell-based; settings: Plasmodium falciparum, values marked with asterisk: [3H]-hypoxanthine assay, read-out: IC50 growth inhibition K1 (*)
[3] = system: P. falciparum NF54 (CQ sensitive); assay: [3H]-hypoxanthine incorporation assay, NF54 strain; assay type: cell-based; settings: Plasmodium falciparum, values marked with asterisk: [3H]-hypoxanthine assay, read-out: IC50 growth inhibition NF54*
[4] = system: chloroquine (CQ) sensitive (3D7) strain of P. falciparum; assay: antimalarial activity against 3D7 compared to propafenone (data not shown); assay type: cell-based

| Structure (SMILES) | % activity (percent reduction of parasitemia) [1] [%] | avg.Day 4 (parasitemia) [1] | % of control [1] [%] | IC50 [2] [nM] | IC50 [3] [nM] | decrease in IC50-value compared to propafenone (A) [4] |
| --- | --- | --- | --- | --- | --- | --- |
| O=C(Nc1ccc(F)cc1)c1ccccc1OCC(O)CNCC12CC3CC(CC(C3)C1)C2 (stereo not drawn) [Compound I-55, 2-{3-[(Adamantan-1-ylmethyl)-amino]-2-hydroxy-propoxy}-N-(4-fluoro-phenyl)-benzamide] | 67.35 | 19.47 | 32.65 | 2 | 6 |  |
| O=C(Nc1cccc(C(F)(F)F)c1)c1ccccc1OCC(O)CNCC12CC3CC(CC(C3)C1)C2 (stereo not drawn) [Compound I-42, 2-{3-[(Adamantan-1-ylmethyl)-amino]-2-hydroxy-propoxy}-N-(3-trifluoromethyl-phenyl)-benzamide] | 97.76 | 1.33 | 2.24 | 0.5 | 2 |  |
| CCCNCC(O)COc1ccccc1C(=O)NCc1ccccc1 (stereo not drawn) [aza-propafenone] |  |  |  |  |  | seventy-fold decrease |
| O=C(Nc1ccc(F)cc1F)c1ccccc1OCC(O)CNCC12CC3CC(CC(C3)C1)C2 (stereo not drawn) [Compound I-39, 2-{3-[(Adamantan-1-ylmethyl)-amino]-2-hydroxy-propoxy}-N-(2,4-difluoro-phenyl)-benzamide] | 49.01 | 30.40 | 50.99 | 3 | 9 |  |
| Cc1ccc(NC(=O)c2ccccc2OCC(O)CNCC23CC4CC(CC(C4)C2)C3)cc1 (stereo not drawn) [Compound I-40, 2-{3-[(Adamantan-1-ylmethyl)-amino]-2-hydroxy-propoxy}-N-p-tolyl-benzamide] | 58.24 | 24.90 | 41.76 | 2 | 6 |  |
